Experiments:
A549 cells = assay: Cellular Gd content after incubation (cell binding assay, ICP-MS); format: cell-based, human; conditions: A549, 50 μM Gd, 37 °C, mean ± SD (n = 6)
Method: (§1) The binding of EBP-Gd-DO3A and EBP-(Gd-DO3A)3 to the receptor on MDA-MB-231, A549, SGC-7901, SW480, and U138 MG cells was compared with that of Gadovist. The cells were seeded into 100 mm × 20 mm cell culture dishes at a density of approximately 1 × 10^6 cells per dish and incubated with EBP-Gd-DO3A, EBP-(Gd-DO3A)3 or Gadovist at a Gd concentration of 50 μM for 1 h or 12 h at 37 °C. After incubation, the cells were washed once with PBS followed by mild acidic buffer (50 mM glycine, 150 mM NaCl (pH 3.0)) at 4 °C for 5 min. Then, the cells were washed twice with PBS, and the cellular Gd content was measured by ICP-MS.
(§2) Cells were seeded into 100 mm×20 mm cell culture dishes at a density of approximately 1×10^6 cells per dish and incubated with EBP-Gd-DO3A, EBP-(Gd-DO3A)3 or Gadovist® at Gd concentrations of 50 μM at 37°C for the indicated time points. The Gd content in the cell lysates was quantified by ICP-MS. The values are presented as the mean ± SD (n = 6).

MDA-MB-231 cells = assay: as above; format: cell-based, human; conditions: MDA-MB-231 (EGFR-overexpressing), 50 μM Gd, 37 °C, mean ± SD (n = 6)
Method: as §1, §2

SGC-7901 cells = assay: as above; format: cell-based, human; conditions: SGC-7901, 50 μM Gd, 37 °C, mean ± SD (n = 6)
Method: as §1, §2

SW480 cells = assay: as above; format: cell-based, human; conditions: SW480, 50 μM Gd, 37 °C, mean ± SD (n = 6)
Method: as §1, §2

U138MG cells = assay: as above; format: cell-based, human; conditions: U138MG (non-EGFR-overexpressing), 50 μM Gd, 37 °C, mean ± SD (n = 6)
Method: as §1, §2

EGFR = molecular target: T1, EGFR (Homo sapiens, UniProt P00533); assay: EGFR inhibition assay (competitive cell binding with anti-EGFR antibody C225); format: cell-based; conditions: all tested cell lines, 5 μg/ml C225 preincubation 12 h, then 50 μM Gd for 1 h, ICP-MS
T1 construct: endogenous in cells; host or cells: MDA-MB-231, A549, SGC-7901, SW480, U138 MG (human tumour cell lines, CCTCC)
Method: To further verify the receptor-binding affinity and specificity of EBP-Gd-DO3A and EBP-(Gd-DO3A)3, a competitive cell-binding assay was carried out. MDA-MB-231, A549, SGC-7901, SW480, and U138 MG cells were preincubated with fresh serum-free medium containing 5 μg/ml anti-EGFR monoclonal antibody C225 (ImClone Systems, Inc., New York, NY) for 12 h at 37 °C. The culture supernatant was removed from the resulting solution, followed by the addition of EBP-Gd-DO3A, EBP-(Gd-DO3A)3, or Gadovist at a Gd concentration of 50 μM for the indicated time points. The cellular Gd content was measured by ICP-MS as described above, and the C225-induced reduction in the cellular Gd accumulation was used to calculate an inhibition index of cellular Gd uptake ([34]).

[1] = tested on: MDA-MB-231, A549, SGC-7901, SW480 and U138 MG cells; assay: In vitro MR imaging of labelled tumor cells, with and without C225; format: cell-based, human; conditions: for MRI signal of cells pretreated with versus without C225: C225 preincubation 12 h, then 50 μM Gd for 24 h, all tested cell lines; for MR enhancement effect in MDA-MB-231, A549, SGC-7901 and SW480 tumor cells / MR enhancement effect in U138MG cell line: 37 °C, 11.7 T MR microimaging of cell pellets
Method: For the in vitro MRI assay, MDA-MB-231, A549, SGC-7901, SW480, and U138 MG cells were seeded into 100 mm × 20 mm cell culture dishes at a density of approximately 1 × 10^6 cells per dish and incubated with EBP-Gd-DO3A, EBP-(Gd-DO3A)3 or Gadovist at a Gd concentration of 50 μM for 24 h at 37 °C. After the completion of the labelling, the cells were washed with PBS 3 times and collected into 1.5 mm-i.d. capillary tubes that were centrifuged at 1400 rpm for 5 min to enable cells to be well packed in the bottom of the capillary for the MRI. The in vitro MRI experiments were performed on an 11.7 T Bruker NMR spectrometer that functioned as an MR microimaging system with a maximum gradient strength of 1.0 T/m. A linear 15-mm-i.d birdcage coil was used for radiofrequency transmission and signal reception. The parameters used for acquiring images were TR = 500 ms, TE = 5.2 ms, FOV = 12 × 12 mm^2, matrix = 96 × 96, flip angle = 90°, slice thickness/gap = 0.8/0.2 mm and number of averages = 4.
The C225-preincubated cells described above were imaged with MRI to observe the contrast enhancement effects. The method used for the MR imaging of cell pellets was the same as that for the in vitro MR imaging of the conjugates described above.

[2] = tested on: MDA-MB-231 tumor xenografts; assay: In vivo biodistribution: tumor Gd content (ICP-MS); conditions: SCID mice, mean ± SD; for Gd content in the MDA-MB-231 tumor tissues (peak): 4 h after single i.v. 50 μM Gd/kg
Method: The 6- to 8-week-old male non-obese diabetic (NOD)/severe-combined immunodeficient (SCID) mice were used to establish MDA-MB-231 (EGFR-overexpressing) and U138 MG (non-EGFR-overexpressing) xenograft models ([35]). The mice were obtained from the Experimental Animal Center of Tongji Medical College, Huazhong University of Science and Technology, and all the experimental procedures involving animals were further approved by the Animal Care and Use Committee of Huazhong University of Science and Technology. The mice were housed separately in polycarbonate cages and provided with food and water. Tumors were grown under the skin by s.c. injection of 1 × 10^6-3 × 10^6 cells. The mice were randomized into groups for the biodistribution assay and MR imaging in vivo when the xenografts reached 5 to 7 mm in diameter. All procedures were approved by the Institutional Animal Care and Use Committee of Huazhong University of Science and Technology (approval no.270193).
The tumor-bearing SCID mice were randomly divided into groups, with 6 animals in each group, an injected via the tail vein with 50 μM Gd/kg EBP-Gd-DO3A, EBP-(Gd-DO3A)3, or Gadovist. At the selected time points (0.25, 0.5, 1, 2, 4, 8, 24, and 48 h) after injection, blood was collected and centrifuged to separate the plasma. Then, organ and tissue samples, including the kidneys, liver, heart, and tumor, were collected and weighed. The tissue samples were liquefied for 1 week and then transferred into centrifuge tubes and centrifuged at 14,000 rpm for 5 min. The resulting supernatants were diluted tenfold with deionized water and centrifuged again under the same conditions. The Gd concentration in the samples was measured by ICP-MS ([36]).

[3] = 24 h after single i.v. 50 μM Gd/kg

With `O=C([O-])CN1CCN(CC(=O)[O-])CCN([C@H](CO)[C@H](O)CO)CCN(CC(=O)[O-])CC1.[Gd+3]` (racemic) [Gadovist, reference compound] the “Concentration of cellular Gd” value (A549 cells; 1 h) was 0.25± 0.05 μM/10^6 cells, the “Concentration of cellular Gd” value (A549 cells; 12 h) was 0.18 ± 0.04 μM/10^6 cells and the “Concentration of cellular Gd” value (MDA-MB-231 cells; 1 h) was 0.18 ± 0.06 μM/10^6 cells. For the same compound, the “Concentration of cellular Gd” value (MDA-MB-231 cells; 12 h) was 0.13 ± 0.02 μM/10^6 cells, the “Concentration of cellular Gd” value (SGC-7901 cells; 1 h) was 0.15 ± 0.05 μM/10^6 cells and the “Concentration of cellular Gd” value (SGC-7901 cells; 12 h) was 0.16 ± 0.03 μM/10^6 cells. The “Concentration of cellular Gd” value (SW480 cells; 1 h) was 0.19 ± 0.07 μM/10^6 cells, the “Concentration of cellular Gd” value (SW480 cells; 12 h) was 0.20 ± 0.07 μM/10^6 cells and the “Concentration of cellular Gd” value (U138MG cells; 1 h) was 0.20 ± 0.04 μM/10^6 cells. The “Concentration of cellular Gd” value (U138MG cells; 12 h) was 0.24 ± 0.05 μM/10^6 cells, the “cellular Gd accumulation with versus without C225 pretreatment” value (EGFR) was “No significant difference” and the “T1 signal intensity in cells with different levels of EGFR expression” value ([1]; 50 μM Gd, 24 h, ROI analysis, p > 0.05) was “not significantly different”. The “MRI signal of cells pretreated with versus without C225” value (“MRI signal … with versus without C225” for short) [1] was “no significant difference”, the “Gd content in the MDA-MB-231 tumor tissues” value ([2]; 0.5 h after single i.v. 50 μM Gd/kg) was 3.36 ± 0.91 nM/g tissue and the “Gd content in the MDA-MB-231 tumor tissues” value ([2]; 2 h after single i.v. 50 μM Gd/kg) was 1.26 ± 0.46 nM/g tissue. For the same compound, the “Gd content in the MDA-MB-231 tumor tissues” value [2, 3] was “no detectable Gd”.

CMYIEALDKYAC [EBP-Gd-DO3A] was tested, and the “Concentration of cellular Gd” value (A549 cells; 1 h) was 0.37 ± 0.07 μM/10^6 cells, the “Concentration of cellular Gd” value (A549 cells; 12 h) was 1.24 ± 0.19 μM/10^6 cells and the “Concentration of cellular Gd” value (MDA-MB-231 cells; 1 h) was 0.43 ± 0.05 μM/10^6 cells. The “Concentration of cellular Gd” value (MDA-MB-231 cells; 12 h) was 1.16 ± 0.10 μM/10^6 cells, the “Concentration of cellular Gd” value (SGC-7901 cells; 1 h) was 0.35 ± 0.04 μM/10^6 cells and the “Concentration of cellular Gd” value (SGC-7901 cells; 12 h) was 1.12 ± 0.16 μM/10^6 cells. For the same compound, the “Concentration of cellular Gd” value (SW480 cells; 1 h) was 0.31 ± 0.06 μM/10^6 cells, the “Concentration of cellular Gd” value (SW480 cells; 12 h) was 1.01 ± 0.13 μM/10^6 cells and the “Concentration of cellular Gd” value (U138MG cells; 1 h) was 0.09 ± 0.01 μM/10^6 cells. For the same compound, the “Concentration of cellular Gd” value (U138MG cells; 12 h) was 0.25 ± 0.07 μM/10^6 cells, the “cellular Gd accumulation with versus without C225 pretreatment” value (EGFR) was “reduced” and the “MR enhancement effect in MDA-MB-231, A549, SGC-7901 and SW480 tumor cells” value ([1]; 50 μM Gd, 24 h) was “strong enhancement effects”. The “MR enhancement effect in U138MG cell line” value ([1]; 50 μM Gd, 24 h) was “much weaker enhancement effect”, the “MRI signal … with versus without C225” value [1] was “reduced” and the “Gd content in the MDA-MB-231 tumor tissues (peak)” value [2] was 17.70 ± 2.10 nM/g tissue. The “Gd content in the MDA-MB-231 tumor tissues” value [2, 3] was 9.95 ± 1.85 nM/g tissue.

With CMYIEALDKYAC [EBP-(Gd-DO3A)3] the “Concentration of cellular Gd” value (A549 cells; 1 h) was 1.04 ± 0.06 μM/10^6 cells, the “Concentration of cellular Gd” value (A549 cells; 12 h) was 2.66 ± 0.15 μM/10^6 cells and the “Concentration of cellular Gd” value (MDA-MB-231 cells; 1 h) was 1.17 ± 0.12 μM/10^6 cells. The “Concentration of cellular Gd” value (MDA-MB-231 cells; 12 h) was 2.79 ± 0.18 μM/10^6 cells, the “Concentration of cellular Gd” value (SGC-7901 cells; 1 h) was 1.01± 0.08 μM/10^6 cells and the “Concentration of cellular Gd” value (SGC-7901 cells; 12 h) was 2.31 ± 0.14 μM/10^6 cells. For the same compound, the “Concentration of cellular Gd” value (SW480 cells; 1 h) was 1.05 ± 0.09 μM/10^6 cells, the “Concentration of cellular Gd” value (SW480 cells; 12 h) was 2.65 ± 0.11 μM/10^6 cells and the “Concentration of cellular Gd” value (U138MG cells; 1 h) was 0.15 ± 0.04 μM/10^6 cells. For the same compound, the “Concentration of cellular Gd” value (U138MG cells; 12 h) was 0.74 ± 0.17 μM/10^6 cells, the “cellular Gd accumulation with versus without C225 pretreatment” value (EGFR) was “reduced” and the “MR enhancement effect in MDA-MB-231, A549, SGC-7901 and SW480 tumor cells” value ([1]; 50 μM Gd, 24 h) was “strong enhancement effects”. The “MR enhancement effect in U138MG cell line” value ([1]; 50 μM Gd, 24 h) was “much weaker enhancement effect”, the “MRI signal … with versus without C225” value [1] was “reduced” and the “Gd content in the MDA-MB-231 tumor tissues (peak)” value [2] was 30.70 ± 1.90 nM/g tissue. For the same compound, the “Gd content in the MDA-MB-231 tumor tissues” value [2, 3] was 19.42 ± 1.76 nM/g tissue.
